Starred links: 1 amine or outer side, 2 acyl side, 3 side chain; linkers in the order of their positions; H or OH if unused. Positions of bridges follow the written chain, without caps; N, C: chain ends. Non-standard residues stand in square brackets, D forms with d. Residues, ends and D or L forms follow the SMILES beside them. *: point of attachment. X3 = CN(CCCCC(=O)N[C@@H](CS[*:2])C(=O)[*:1])[*:3]; Trp(7-Me) = Cc1cccc2c(C[C@H](N)C(=O)O)c[nH]c12; 2Nal = N[C@@H](Cc1ccc2ccccc2c1)C(=O)O; AEF = NCCOc1ccc(C[C@H](N)C(=O)O)cc1; 3Pal = N[C@@H](Cc1cccnc1)C(=O)O; αMeL = CC(C)C[C@](C)(N)C(=O)O; Thp = NC1(C(=O)O)CCOCC1; Me2NCH2CH2 = CN(C)CC*; Ava = NCCCCC(=O)O; Sar = CNCC(=O)O
How the values were obtained:
[1] = biological target: T1, human interleukin-23 receptor (recombinant human IL-23R-Fc chimera) (Homo sapiens, UniProt Q5VWK5); test: Human ELISA IL23/IL23R (assay for specific human IL23R antagonists); type: binding; conditions: Table 10; read-out: Human ELISA IL23/IL23R IC50
T1 construct: Fc (IgG Fc fusion)
Procedure, shortened: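 Competition format: peptide dilutions compete for IL23R-Fc chimera (0.1 μg/ml final, 60 min, room temperature) binding to immobilized human IL23 coated at […] overnight at 4 °C. Read-out is fluorogenic HRP signal from goat anti-hu-IgG1 detecting captured receptor.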

[2] = tested on: IL-23 induced STAT3 signaling in HEK-Blue™ IL-23 cells; test: IL-23 induced STAT3 signaling in HEK-Blue IL-23 cells (SEAP reporter); type: cell-based; conditions: human IL23 0.25 ng/ml, read-out: pSTAT3
Procedure, shortened: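 Secreted SEAP, read at OD 620-655 nm after 45 min QUANTI-Blue development, reports STAT3 activation. Beforehand, cells were exposed to peptide dilutions for 60 min at 37 °C and then to 0.25 ng/ml final human IL-23 overnight, at 10,000 cells/well.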

[3] = Chemical stability assessment of peptides (relative purity loss); type: physicochemical; conditions: 24 hours at 37° C.; for Chemical stability (relative purity loss) Buffer pH 1.2: 50 mM HCl pH 1.2 + acetonitrile (1:1); for Chemical stability (relative purity loss) Buffer pH 6.5: 50 mM phosphate buffer pH 6.5 + acetonitrile (1:1); for Chemical stability (relative purity loss) Buffer pH 7.4: 50 mM phosphate buffer pH 7.4 + acetonitrile (1:1)
Procedure, shortened: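 Peptide solutions at 1 mg/ml (purity-corrected) in 1:1 acetonitrile with 50 mM HCl pH 1.2, or 50 mM phosphate pH 6.5 or pH 7.4, held 24 hours at 2° C. and 37° C. Supernatants analysed by UHPLC-UV; relative purity loss taken as percent drop in peak-area purity from 0 to 24 hours at 37° C.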

Pepsin = tested on: T2, Pepsin; test: Protease stability in simulated gastric fluid (Pepsin-SGF, FaSSGF); type: in vitro ADME; conditions: simulated gastric fluid with pepsin (Pepsin-SGF), 60 min, 1 μM peptide, 37° C., read-out: FaSSGF 60 (min), remaining percent of peptide
T2 construct: purchased Merck Millipore
Procedure, shortened: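 LCMS/MS peak areas, normalised to the time-0 sample as 100%, give percent remaining. Conditions: 37° C incubation of 1 μM final peptide in simulated gastric fluid with pepsin; ethanol/0.1% HCOOH quench at 0, 60, 120, 240 min.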

Pancreatin = test: Protease stability in simulated intestinal fluid (Pancreatin-SIF, FaSSIF); type: in vitro ADME; conditions: 1 μM peptide, 37° C.; for remaining at 1 h, 1 µM: 60 min, read-out: FaSSIF 60 (min), remaining percent of peptide; for remaining at 2 h, 1 µM: 120 min, read-out: FaSSIF 120 (min), remaining percent of peptide; for remaining at 4 h, 1 µM: 240 min, read-out: FaSSIF 240 (min), remaining percent of peptide
Procedure, shortened: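 LC-MS/MS peak areas at 0, 60, 120 and 240 min, normalised to time 0 as 100%, give percent remaining. Reactions used 1 μM final peptide at 37° C in pancreatin-SIF (1 mg pancreatin in 10 mL SIF concentrate) and were stopped with ethanol containing 0.1% HCOOH.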

Row | Structure (SMILES) | IC50 [1] [nM] | IC50 [2] [nM] | Chemical stability (relative purity loss) Buffer pH 1.2 [3] [%] | Chemical stability (relative purity loss) Buffer pH 6.5 [3] [%] | Chemical stability (relative purity loss) Buffer pH 7.4 [3] [%] | remaining at 1 h, 1 µM (Pepsin) [%] | remaining at 1 h, 1 µM (Pancreatin) [%] | remaining at 2 h, 1 µM (Pancreatin) [%] | remaining at 4 h, 1 µM (Pancreatin) [%]
1 | Cc1cccc2c(C[C@@H]3NC(=O)[C@H]([C@@H](C)O)NC(=O)[C@H](CC(N)=O)NC(=O)[C@@H]4CSSC[C@H](NC(=O)[C@H](CC(C)C)NC3=O)C(=O)N[C@@H](Cc3ccc(OCCN(C)C)cc3)C(=O)N[C@@H](Cc3ccc5ccccc5c3)C(=O)NC3(CCOCC3)C(=O)N[C@H](C(=O)N[C@@H](CC(N)=O)C(=O)N[C@@H](Cc3cccnc3)C(=O)N(C)CC(N)=O)CCC(=O)NCCCCC(=O)N4)c[nH]c12 [compound 24] ([Ava]CNT[Trp(7-Me)]LCY(Me2NCH2CH2)[2Nal][Thp]EN[3Pal][Sar]-NH2; disulfide 2-7; lactam N-11) | 0.4 | 0.59 | 7.2 | 0.0 | 0.4 | 84 | 80 | 79 | 76
2 | CC(=O)N[C@H]1CCCCNC(=O)[C@@H]2CSSC[C@H](NC(=O)[C@H](CCC(N)=O)NC(=O)[C@H](Cc3c[nH]c4ccccc34)NC1=O)C(=O)N[C@@H](Cc1ccc(OCCN)cc1)C(=O)N[C@@H](Cc1ccc3ccccc3c1)C(=O)NC1(CCOCC1)C(=O)N[C@H](C(=O)N[C@@H](CC(N)=O)C(=O)NCC(N)=O)CCC(=O)N(C)CCCCC(=O)N2 [compound 16] (Ac-KWQC[AEF][2Nal][Thp]ENG-NH2; linker 1-4-8 via X3) | 0.33 | 32.1 | 13.2 | 1.1 | 4.2 | 62 | 83 | 67 | 50
3 | CC(=O)N[C@H]1CCCCNC(=O)[C@@H]2CSSC[C@H](NC(=O)[C@H](CCC(N)=O)NC(=O)[C@H](Cc3c[nH]c4ccccc34)NC1=O)C(=O)N[C@@H](Cc1ccc(OCCN)cc1)C(=O)N[C@@H](Cc1ccc3ccccc3c1)C(=O)N[C@@](C)(CC(C)C)C(=O)N[C@H](C(=O)N[C@@H](CC(N)=O)C(=O)N[C@@H](CC(N)=O)C(N)=O)CCC(=O)N(C)CCCCC(=O)N2 [compound 14] (Ac-KWQC[AEF][2Nal][αMeL]ENN-NH2; linker 1-4-8 via X3) | 0.36 | 18.7 | 25.8 | 0.6 | 0.1 | 72 | 83 | 68 | 49

Source: patent publication US20260258084A1, “New Peptides as Selective IL-23 Receptor Antagonists” (Sanofi, priority 2022, published 2026)
